Measurements published in ChEMBL document CHEMBL4411277, “Structural Revision of Macropodumine A and Structure of 2-Deoxymacropodumine A, Daphniphyllum Alkaloids with 11-Membered Macrolactone Rings” (J Nat Prod, 2019).

System: HeLa
Assay: Cytotoxicity against human HeLa cells assessed as reduction in cell viability by MTT assay
Format: functional, cell-based

C[C@@H]1CN2C[C@H]3CCC(=O)OCC[C@H]4CC5=C(C4=O)[C@@]3(C)[C@H]2C[C@H]1C5=O
IC50: 3.89 µM
